# Experimental data from ChEMBL document CHEMBL3414487, “Synthesis and biological activity of salinomycin conjugates with floxuridine” (Eur J Med Chem, 2015).
# Columns and labels:
# [1] = Antiproliferative activity against human HL60 cells assessed as growth inhibition after 72 hrs by MTT assay; assay type: functional, cell-based; conditions: HL-60, 72 h
# [2] = Antiproliferative activity against human vincristine-resistant HL60/Vinc cells assessed as growth inhibition after 72 hrs by MTT assay; assay type: functional; conditions: Homo sapiens, HL60/vinc, 72 h
# [3] = system: LoVo; assay: Antiproliferative activity against human LoVo cells assessed as growth inhibition after 72 hrs by SRB method; assay type: functional, cell-based; conditions: Homo sapiens, LoVo, 72 h
# [4] = Antiproliferative activity against human doxorubicin-resistant LoVo/DX cells assessed as growth inhibition after 72 hrs by SRB method; assay type: functional, cell-based
# [5] = system: HT-29; assay: Antiproliferative activity against human HT-29 cells assessed as growth inhibition after 72 hrs by SRB method; assay type: functional, cell-based; conditions: Homo sapiens, HT-29, 72 h
# [6] = Antiproliferative activity against human LS180 cells assessed as growth inhibition after 72 hrs by SRB method; assay type: functional, cell-based; conditions: Homo sapiens, LS180, 72 h
# [7] = Antiproliferative activity against human SW707 cells assessed as growth inhibition after 72 hrs by SRB method; assay type: functional, cell-based; conditions: Homo sapiens, SW707, 72 h
# [8] = system: BALB/3T3; assay: Antiproliferative activity against mouse BALB/3T3 cells assessed as growth inhibition after 72 hrs by SRB method; assay type: cell-based; conditions: BALB/3T3, 72 h
# [9] = system: HL-60; assay: Selectivity index, ratio of IC50 for mouse BALB/3T3 cells to IC50 for human HL60 cells; assay type: functional
# [10] = Selectivity index, ratio of IC50 for mouse BALB/3T3 cells to IC50 for human HL60/Vinc cells; assay type: functional
# [11] = system: LoVo; assay: Selectivity index, ratio of IC50 for mouse BALB/3T3 cells to IC50 for human LoVo cells; assay type: functional
# [12] = Selectivity index, ratio of IC50 for mouse BALB/3T3 cells to IC50 for human LoVo/DX cells; assay type: functional
# [13] = system: HT-29; assay: Selectivity index, ratio of IC50 for mouse BALB/3T3 cells to IC50 for human HT-29 cells; assay type: functional
# [14] = Selectivity index, ratio of IC50 for mouse BALB/3T3 cells to IC50 for human LS180 cells; assay type: functional
# [15] = Selectivity index, ratio of IC50 for mouse BALB/3T3 cells to IC50 for human SW707 cells; assay type: functional
# [16] = system: HL-60; assay: Resistance index, ratio of IC50 for human HL60/Vinc cells to IC50 for human HL60 cells
# [17] = system: LoVo; assay: Resistance index, ratio of IC50 for human LoVo/DX cells to IC50 for human LoVo cells
# [18] = system: Staphylococcus aureus; assay: Antimicrobial activity against Staphylococcus aureus […] 4163 after 18 hrs by two-fold serial microdilution method; assay type: functional
# [19] = system: Staphylococcus aureus; assay: Antimicrobial activity against Staphylococcus aureus ATCC 25923 after 18 hrs by two-fold serial microdilution method; assay type: functional; conditions: ATCC 25923, 18 h
# [20] = system: Staphylococcus aureus; assay: Antimicrobial activity against Staphylococcus aureus ATCC 6538 after 18 hrs by two-fold serial microdilution method; assay type: functional; conditions: ATCC 6538, 18 h
# [21] = system: Staphylococcus aureus; assay: Antimicrobial activity against Staphylococcus aureus ATCC 29213 after 18 hrs by two-fold serial microdilution method; assay type: functional; conditions: ATCC 29213, 18 h
# [22] = system: Staphylococcus epidermidis; assay: Antimicrobial activity against Staphylococcus epidermidis ATCC 12228 after 18 hrs by two-fold serial microdilution method; assay type: functional; conditions: ATCC 12228, 18 h
# [23] = system: Staphylococcus epidermidis; assay: Antimicrobial activity against Staphylococcus epidermidis ATCC 35984 after 18 hrs by two-fold serial microdilution method; assay type: functional; conditions: ATCC 35984, 18 h
# [24] = system: Staphylococcus aureus; assay: Antimicrobial activity against methicillin-resistant Staphylococcus aureus 452/11 after 18 hrs by two-fold serial microdilution method; assay type: functional; conditions: 452/11, 18 h
# [25] = system: Staphylococcus aureus; assay: Antimicrobial activity against methicillin-resistant Staphylococcus aureus 456/11 after 18 hrs by two-fold serial microdilution method; assay type: functional; conditions: 456/11, 18 h
# [26] = system: Staphylococcus aureus; assay: Antimicrobial activity against methicillin-resistant Staphylococcus aureus 462/11 after 18 hrs by two-fold serial microdilution method; assay type: functional; conditions: 462/11, 18 h
# [27] = system: Staphylococcus aureus; assay: Antimicrobial activity against methicillin-resistant Staphylococcus aureus 514/11 after 18 hrs by two-fold serial microdilution method; assay type: functional; conditions: 514/11, 18 h
# [28] = system: Staphylococcus aureus; assay: Antimicrobial activity against methicillin-resistant Staphylococcus aureus 522/12 after 18 hrs by two-fold serial microdilution method; assay type: functional; conditions: 522/12, 18 h
# [29] = system: Staphylococcus aureus; assay: Antimicrobial activity against methicillin-resistant Staphylococcus aureus 537/12 after 18 hrs by two-fold serial microdilution method; assay type: functional; conditions: 537/12, 18 h
# [30] = system: Staphylococcus aureus; assay: Antimicrobial activity against methicillin-resistant Staphylococcus aureus 572/12 after 18 hrs by two-fold serial microdilution method; assay type: functional; conditions: 572/12, 18 h
# [31] = system: Staphylococcus aureus; assay: Antimicrobial activity against methicillin-resistant Staphylococcus aureus 573/12 after 18 hrs by two-fold serial microdilution method; assay type: functional; conditions: 573/12, 18 h
# [32] = system: Staphylococcus aureus; assay: Antimicrobial activity against methicillin-resistant Staphylococcus aureus 585/12 after 18 hrs by two-fold serial microdilution method; assay type: functional; conditions: 585/12, 18 h
# [33] = system: Staphylococcus aureus; assay: Antimicrobial activity against methicillin-resistant Staphylococcus aureus 586/12 after 18 hrs by two-fold serial microdilution method; assay type: functional; conditions: 586/12, 18 h
# [34] = system: Staphylococcus epidermidis; assay: Antimicrobial activity against methicillin-resistant Staphylococcus epidermidis 459/11 after 18 hrs by two-fold serial microdilution method; assay type: functional; conditions: 459/11, 18 h
# [35] = system: Staphylococcus epidermidis; assay: Antimicrobial activity against methicillin-resistant Staphylococcus epidermidis 460/11 after 18 hrs by two-fold serial microdilution method; assay type: functional; conditions: 460/11, 18 h
# [36] = system: Staphylococcus epidermidis; assay: Antimicrobial activity against methicillin-resistant Staphylococcus epidermidis 461/11 after 18 hrs by two-fold serial microdilution method; assay type: functional; conditions: 461/11, 18 h
# [37] = system: Staphylococcus epidermidis; assay: Antimicrobial activity against methicillin-resistant Staphylococcus epidermidis 466/11 after 18 hrs by two-fold serial microdilution method; assay type: functional; conditions: 466/11, 18 h
# [38] = system: Staphylococcus epidermidis; assay: Antimicrobial activity against methicillin-resistant Staphylococcus epidermidis 467/11 after 18 hrs by two-fold serial microdilution method; assay type: functional; conditions: 467/11, 18 h
# [39] = system: Staphylococcus epidermidis; assay: Antimicrobial activity against methicillin-resistant Staphylococcus epidermidis 468/11 after 18 hrs by two-fold serial microdilution method; assay type: functional; conditions: 468/11, 18 h
# [40] = system: Staphylococcus epidermidis; assay: Antimicrobial activity against methicillin-resistant Staphylococcus epidermidis 469/11 after 18 hrs by two-fold serial microdilution method; assay type: functional; conditions: 469/11, 18 h
# [41] = system: Staphylococcus epidermidis; assay: Antimicrobial activity against methicillin-resistant Staphylococcus epidermidis 470/11 after 18 hrs by two-fold serial microdilution method; assay type: functional; conditions: 470/11, 18 h
# [42] = system: Staphylococcus epidermidis; assay: Antimicrobial activity against methicillin-resistant Staphylococcus epidermidis 488/11 after 18 hrs by two-fold serial microdilution method; assay type: functional; conditions: 488/11, 18 h
# [43] = system: Staphylococcus epidermidis; assay: Antimicrobial activity against methicillin-resistant Staphylococcus epidermidis 489/11 after 18 hrs by two-fold serial microdilution method; assay type: functional; conditions: 489/11, 18 h
structure (smiles),measurement,setting,value
CC[C@@H](C(=O)[C@@H](C)[C@@H](O)[C@H](C)[C@@H]1O[C@@H]([C@@H](CC)C(=O)OC[C@H]2O[C@@H](n3cc(F)c(=O)[nH]c3=O)C[C@@H]2O)CC[C@@H]1C)[C@H]1O[C@]2(C=C[C@@H](O)[C@]3(CC[C@@](C)([C@H]4CC[C@](O)(CC)[C@H](C)O4)O3)O2)[C@H](C)C[C@@H]1C,IC50,[1],0.37 µM
same,IC50,[2],2.82 µM
same,IC50,[3],1.46 µM
same,IC50,[4],0.93 µM
same,IC50,[5],2.02 µM
same,IC50,[6],2.25 µM
same,IC50,[7],1.99 µM
same,IC50,[8],32.3 µM
same,Selectivity Index,[9],87.24
same,Selectivity Index,[10],11.45
same,Selectivity Index,[11],22.11
same,Selectivity Index,[12],34.71
same,Selectivity Index,[13],15.98
same,Selectivity Index,[14],14.35
same,Selectivity Index,[15],16.22
same,Ratio IC50,[16],7.62
same,Ratio IC50,[17],0.64
same,MIC,[18],8.17 µM
same,MIC,[19],8.17 µM
same,MIC,[20],4.09 µM
same,MIC,[21],4.09 µM
same,MIC,[22],4.09 µM
same,MIC,[23],4.09 µM
same,MIC,[24],32.7 µM
same,MIC,[25],32.7 µM
same,MIC,[26],32.7 µM
same,MIC,[27],8.17 µM
same,MIC,[28],8.17 µM
same,MIC,[29],8.17 µM
same,MIC,[30],8.17 µM
same,MIC,[31],8.17 µM
same,MIC,[32],16.3 µM
same,MIC,[33],8.17 µM
same,MIC,[34],32.7 µM
same,MIC,[35],32.7 µM
same,MIC,[36],32.7 µM
same,MIC,[37],32.7 µM
same,MIC,[38],32.7 µM
same,MIC,[39],32.7 µM
same,MIC,[40],32.7 µM
same,MIC,[41],8.17 µM
same,MIC,[42],32.7 µM
same,MIC,[43],8.17 µM
O=c1[nH]c(=O)n([C@H]2C[C@H](O)[C@@H](CO)O2)cc1F [FLOXURIDINE],IC50,[1],0.24 µM
same,IC50,[2],17.4 µM
same,IC50,[3],19.1 µM
same,IC50,[4],16.7 µM
same,IC50,[5],115 µM
same,IC50,[6],140 µM
same,IC50,[7],23.9 µM
same,IC50,[8],23.9 µM
same,Selectivity Index,[9],99.58
same,Selectivity Index,[10],1.37
same,Selectivity Index,[11],1.25
same,Selectivity Index,[12],1.43
same,Selectivity Index,[13],0.21
same,Selectivity Index,[14],0.17
same,Selectivity Index,[15],1
same,Ratio IC50,[16],72.5
same,Ratio IC50,[17],0.87
same,MIC,[18],≤ 0.016 µM
same,MIC,[19],≤ 0.016 µM
same,MIC,[20],≤ 0.016 µM
same,MIC,[21],≤ 0.016 µM
same,MIC,[22],≤ 0.016 µM
same,MIC,[23],≤ 0.016 µM
same,MIC,[24],≤ 0.016 µM
same,MIC,[25],≤ 0.016 µM
same,MIC,[26],≤ 0.016 µM
same,MIC,[27],≤ 0.016 µM
same,MIC,[28],≤ 0.016 µM
same,MIC,[29],≤ 0.016 µM
same,MIC,[30],≤ 0.016 µM
same,MIC,[31],≤ 0.016 µM
same,MIC,[32],≤ 0.016 µM
same,MIC,[33],≤ 0.016 µM
same,MIC,[34],≤ 0.016 µM
same,MIC,[35],≤ 0.016 µM
same,MIC,[36],≤ 0.016 µM
same,MIC,[37],≤ 0.016 µM
same,MIC,[38],≤ 0.016 µM
same,MIC,[39],≤ 0.016 µM
same,MIC,[40],≤ 0.016 µM
same,MIC,[41],≤ 0.016 µM
same,MIC,[42],≤ 0.016 µM
same,MIC,[43],≤ 0.016 µM
